Measurements taken from patent US7252944B2, “Methods and compositions for modulating cell proliferation” (IRM LLC, priority 2003, dated 2007).

Key:
[1] = test system: hog1-as1 mutant strain (hog1-27); experiment: Genome-wide expression analysis, hog1-as1 mutant strain under salt; assay type: cell-based, Saccharomyces cerevisiae; details: MUTS+1-NM-PP1 versus MUTS+DMSO; 1-NM-PP1 2 μM, 0.9 M NaCl
Procedure: (§1) Genome-wide expression analysis: Total RNA preparation from hog1-27 strain was performed as described previously (Holstege et al., Cell 95, 717-28, 1998). To monitor the changes in expression caused by specific inhibition of Hog1 kinase, cultures of either wt or hog1-27 were incubated with 1-NM-PP1 (2 μM) for 30 minutes before harvesting (for control, 0.002% DMSO was added). To monitor the effect of osmotic stress, sodium chloride was added into either inhibitor-treated or DMSO-treated cultures to a final concentration of 0.9 M.
(§2) The preparation of probe and the procedure for microassay experiments was performed as described in the literature. The output files from the scanner were uploaded into the GNF chip informatics server and expression profiles were analyzed using a built-in analysis program, ANOVA. Search for the common transcriptional regulatory elements was done using the promoter database of Saccharomyces cerevisiae at the Cold Spring Harbor Laboratory.
For DNA micro-array experiments, total RNAs were isolated from both the wt strain and the hog1-as1 mutant strain (hog1-27) treated with DMSO (WT+DMSO, MUT+DMSO), salt and DMSO (WTS+DMSO, MUTS+DMSO), salt and inhibitor (WTS+1-NM-PP1, MUTS+1-NM-PP1). For each experiment, RNA samples were prepared in duplicates, followed by the preparation of the corresponding biotinylated cRNA probes and hybridized to Yeast Genome S98 arrays (Affymetrix). Two expression profiles were first examined between duplicate samples to ensure reproducibility and the whole procedure was repeated three times. […] To analyze the number of genes affected by salt addition, expression profiles of MUTS+DMSO versus MUT+DMSO were compared by ANOVA (Brazma and Vilo, 2000). The expressions of 874 genes in the mutant strain were changed more than 2.5 fold by the addition of salt. Thus, the analysis covered almost the full complement of genes known to be affected by osmotic stress.
The effect of inhibition in the hog1-as1 mutant strain was examined by comparing the expression profiles of MUTS+1-NM-PP1 versus MUTS+DMSO. […]

wt strain = experiment: Genome-wide expression analysis, wt strain under salt; assay type: cell-based, Saccharomyces cerevisiae; details: 1-NM-PP1 2 μM, 0.9 M NaCl
Procedure: as §1, §2
For DNA micro-array experiments, total RNAs were isolated from both the wt strain and the hog1-as1 mutant strain (hog1-27) treated with DMSO (WT+DMSO, MUT+DMSO), salt and DMSO (WTS+DMSO, MUTS+DMSO), salt and inhibitor (WTS+1-NM-PP1, MUTS+1-NM-PP1). […]

SHMT = details: background statement; cited from earlier work
SHMT1 [2] = experiment: SHMT1 activity immunoprecipitated from sorbitol-stimulated SHMT1-HEK293 cells; assay type: cell-based, human; details: serum-starved SHMT1-HEK293 cells, 0.3 M sorbitol, 15 or 30 min; FIG. 3
Procedure: Transfection and retroviral infection: SHMT1 (human homolog of yeast Shm2) with a C-terminal myc tag was cloned into pBabe puro plasmid and was transiently transfected into Bosc 23 cells using Effectene (Qiagen) as manufacturer's protocol. The harvested retroviruses was added to 5×10^5 HEK-293 cells for infection. After 48 hours the infected cells were selected in the presence of 2.5 µg/mL of puromycin. SHMT1-HEK293 cells were cultured in DMEM with 10% Bovine Calf Serum (BCS) and were serum-starved for 24 hr in DMEM with 0.5% BCS.
Transient transfection and SHMT1 assay: MKK6b was cloned into pcDNA6Hismyc B vector (Invitrogen) and MKK6b-EE was further generated using Quick change protocol (Stratagene). Transient transfection of MKK6b-EE into SHMT1-HEK 293 cells was carried using Lipofectamine 2000 (Invitrogen) according to the manufacturer's protocol. […] SHMT1 or phosphorylated form of p38α was detected by immunobloting with either c-myc antibody (Santa Cruz) or phospho-p38 antibody (Cell Signal) using West pico supersignal kit (Pierce).
Finally, to investigate whether SHMT1 was also an in vivo target of p38 MAP kinase, myc-tagged SHMT1 expressing HEK 293 stable cells were generated. […] SHMT1 was immunoprecipitated at different time points after stimulation and its enzymatic activity was measured as described above. […]

SHMT1 [3] = biological target: T1, SHMT1 (Homo sapiens, UniProt P34896); experiment: SHMT1 enzymatic assay after phosphorylation by p38; assay type: biochemical; details: stated as in vitro; FIG. 4
T1 construct: expressed in transfected cells; host or cells: HEK-293 cells, retroviral infection with pBabe puro and puromycin selection (SHMT1-HEK293)
T1 sequence (P34896 1-483): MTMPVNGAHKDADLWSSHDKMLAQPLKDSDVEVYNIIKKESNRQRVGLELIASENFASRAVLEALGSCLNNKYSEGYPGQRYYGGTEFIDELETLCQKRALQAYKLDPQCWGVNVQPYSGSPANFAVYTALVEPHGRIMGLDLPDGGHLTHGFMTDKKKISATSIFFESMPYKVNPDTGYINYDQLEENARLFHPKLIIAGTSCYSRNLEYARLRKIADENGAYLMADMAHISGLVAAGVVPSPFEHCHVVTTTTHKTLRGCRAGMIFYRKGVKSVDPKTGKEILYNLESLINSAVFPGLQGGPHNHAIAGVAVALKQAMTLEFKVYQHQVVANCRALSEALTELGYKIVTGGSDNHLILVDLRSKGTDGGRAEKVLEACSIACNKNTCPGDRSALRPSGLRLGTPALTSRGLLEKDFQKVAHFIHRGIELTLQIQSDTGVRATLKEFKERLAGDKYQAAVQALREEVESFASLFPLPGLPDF
Procedure: (§3) Enzymatic assay for serine hydroxymethyltransferase 2 (Shm2): GST-Shm2 was purified from a yeast strain as described above and its enzymatic activity was measured as described earlier (Krishna Rao et al., Biochem J 343 Pt 1, 257-63, 1999) with minor modifications. To measure the effect of either Hog1-as1 or p38 kinases, Shm2 enzyme was pre-incubated with each kinase in presence of either 1 mM PE-ATP (for Hog1-as1) or 1 mM ATP (for p38) for 30 min at RT before adding to the reaction mixture.
Transient transfection and SHMT1 assay: MKK6b was cloned into pcDNA6Hismyc B vector (Invitrogen) and MKK6b-EE was further generated using Quick change protocol (Stratagene). Transient transfection of MKK6b-EE into SHMT1-HEK 293 cells was carried using Lipofectamine 2000 (Invitrogen) according to the manufacturer's protocol. Immunoprecipitation procedure for SHMT1 from transfected cells was described previously (Shah and Shokat, Chem Biol 9, 35-47, 2002). SHMT1 enzymatic assay was carried out exactly as Shm2 assay as described above. SHMT1 or phosphorylated form of p38α was detected by immunobloting with either c-myc antibody (Santa Cruz) or phospho-p38 antibody (Cell Signal) using West pico supersignal kit (Pierce).

Shm2 = biological target: T2, Shm2 (Saccharomyces cerevisiae, UniProt P37291); experiment: Enzymatic assay for serine hydroxymethyltransferase 2 (Shm2) after pre-incubation with kinase; assay type: biochemical; details: in vitro; pre-incubation with p38α and 1 mM ATP, 30 min RT; FIG. 2D
T2 construct: made in house; host or cells: Saccharomyces cerevisiae
T2 sequence (P37291 1-469): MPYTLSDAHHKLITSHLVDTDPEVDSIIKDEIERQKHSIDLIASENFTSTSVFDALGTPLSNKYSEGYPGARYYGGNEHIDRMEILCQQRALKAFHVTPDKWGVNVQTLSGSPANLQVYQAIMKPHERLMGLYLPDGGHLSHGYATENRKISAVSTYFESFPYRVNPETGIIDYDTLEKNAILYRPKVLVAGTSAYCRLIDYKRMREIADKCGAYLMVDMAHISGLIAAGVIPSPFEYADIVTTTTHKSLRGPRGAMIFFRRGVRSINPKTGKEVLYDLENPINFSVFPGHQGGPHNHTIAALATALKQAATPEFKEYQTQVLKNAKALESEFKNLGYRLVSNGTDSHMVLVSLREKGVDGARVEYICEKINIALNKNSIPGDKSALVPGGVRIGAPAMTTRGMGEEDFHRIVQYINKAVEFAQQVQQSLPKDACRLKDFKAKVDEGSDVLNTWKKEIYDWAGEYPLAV
Procedure: as §3
To determine Shm2 activity, we measured the transfer of C^14-labeled one-carbon unit as described in the Krishna Rao et al., Biochem J 343 Pt 1, 257-63, 1999. In order to estimate the effect of phosphorylation, Shm2 was pre-incubated with or without Hog 1 kinase, prior to the C^14 transfer reaction.

In the case of `CC(C)(C)n1nc(Cc2cccc3ccccc23)c2c(N)ncnc21` [1-NM-PP1], the “number of genes affected more than 2-fold by addition of inhibitor” value [1] is reported as 96 genes, the “number of genes downregulated by addition of inhibitor” value [1] is reported as 81 genes and the “number of genes upregulated by addition of inhibitor” value [1] is reported as 15 genes. For the same compound, the “number of genes affected by addition of inhibitor” value (wt strain) was 11 genes.
For `CN(Cc1cnc2nc(N)nc(N)c2n1)c1ccc(C(=O)N[C@@H](CCC(=O)O)C(=O)O)cc1` [methotrexate], the “inhibition of SHMT activity” value (SHMT) is given as “failed to inhibit SHMT activity significantly”.
With `OC[C@@H](O)[C@@H](O)[C@H](O)[C@@H](O)CO` [sorbitol] the “SHMT1 enzymatic activity after sorbitol treatment” value (SHMT1 [2]) was “decreased activity of SHMT1”.
In the case of “p38 MAP kinase: Active p38α MAP kinase purchased from Upstate Inc.; human homolog of Hog1”, the “modulation of SHMT1 enzymatic activity upon phosphorylation” value (SHMT1 [3]) is reported as 30% and the “modulation of Shm2 enzymatic activity upon phosphorylation” value (Shm2) is reported as about 50%.
